Data on three compounds can be found in article PMC6354162, “Development of a MD-LC-MS/MS Method to Analyze 3 Bioactive Compounds in Huoxuezhitong Rubber Patch and Application to a Pharmacokinetic Study in Rats” (Evidence-based Complementary and Alternative Medicine : eCAM, 2019).

The conditions of data set [1]: cited from earlier work.
Data set [2] is described as follows: Local (subcutaneous) pharmacokinetic study by dermal microdialysis after dermal administration of Huoxuezhitong rubber patch. The conditions noted are these: Sprague-Dawley, rat, subcutaneous (dermal) microdialysate, topical, male SD rats, mean ± SD, n = 6; for Cmax: maximum subcutaneous concentration, transdermal Huoxuezhitong rubber patch (3.46 cm2), removed after 720 min, corrected by RR; for AUC(0-t): subcutaneous concentration-time curve, read-out: AUC0-720 (converted); for AUC(0-t) / Tmax / MRT last / MRT inf / half-life: transdermal Huoxuezhitong rubber patch; for Tmax: subcutaneous tissue; for MRT last / MRT inf / half-life: subcutaneous; for MRT last: read-out: MRT0-720 (converted); for MRT inf: read-out: MRT0-∞ (converted); for half-life: terminal elimination half-life. The data set is classed as in vivo. On the procedure: Before surgery, a rat with the hair on the abdomen shaved off was anesthetized with Urethane (1.5g/ kg, intraperitoneal injection). Its shell temperature was maintained at about 32.5°C during the experiment with the help of an infrared lamp. The linear microdialysis probe was inserted through a 23-gage intravenous needle. Subsequently, the needle was taken out, leaving the dialysis membranes horizontal under the hairless skin.
Implantation and pretreatment of the probe are the same as that described in Section 2.3. Then a round rubber patch (3.46 cm^2) was pasted on the hairless abdomen of the rat, respectively. After 720 min, the paste was scripted away. The skin was wiped softly and carefully to remove the residual drug. Simultaneously, another three samples was collected. If the rats suddenly died, the collection had to be terminated. All samples were immediately stored at 4°C until injected into the LC/MS/MS system for analysis. The sample concentration was corrected by RR.
The pharmacokinetics analysis was conducted by a noncompartmental approach using the Kinetica 5.1. The pharmacokinetics parameters, such as the maximum subcutaneous concentration (Cmax), time of reaching Cmax (Tmax), the area subcutaneous concentration-time curve (AUC0-t), the mean residence time (MRT), and the terminal elimination half-life (t1/2), were calculated on each individual analyte.

With `C=CCc1ccc(O)c(OC)c1` [eugenol], the Water solubility entry in data set [1] was “insoluble”. Moreover, in data set [2], the highest level (Cmax) was 18.9 ± 7.11 ng/mL, the AUC(0-t) is 119 ng·h/mL, the Tmax (usually the time from dosing to the highest level) is 4 h and the MRT last was 6.2 h. Besides, in data set [2], the MRT inf was 7.77 h and the half-life – broadly, the time needed for the level to fall by half in the phase considered – was found to be 3.81 ± 2.7 h.

Regarding `O=C(/C=C/C=C/c1ccc2c(c1)OCO2)N1CCCCC1` [piperine], the Water solubility entry in data set [1] is listed as “insoluble”. For the same compound, in data set [2], the peak concentration (Cmax) (commonly the highest concentration seen after dosing) worked out at 1.8 ± 1.22 ng/mL, the AUC(0-t) is 14.7 ng·h/mL, the Tmax was 8.13 h and the MRT last was 9.17 h. Also, in data set [2], the MRT inf is 11.5 h and the half-life was found to be 5.62 ± 0.741 h.

Take `COc1ccc(C(C)=O)c(O)c1` [paeonol]: the Water solubility in data set [1] is 349.8 µg/mL. Moreover, in data set [2], the highest level (Cmax) was 12.6 ± 3.29 ng/mL, the AUC(0-t) is 83.7 ng·h/mL, the Tmax was 3.11 h and the MRT last is 6.06 h. In addition, in data set [2], the MRT inf was 9.5 h and the half-life was 5.62 ± 3.8 h.
